From the supplement of paper PMC10307832

Experiments:
Assay in all cases: relative viability (nuclei count vs DMSO), 5 days (fraction); higher = more cells survive
[1] = test system: NCI-H2087
In short: (§1)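 Relative viability is defined as nuclei in treated wells over nuclei in vehicle wells. Duplicate plates were run and medians reported. Lung cancer cell lines in 1536-well plates were dosed by pin tool one day after seeding, with one drug or with a fixed anchor-drug dose plus five library-drug doses (not always all listed) in √10 steps, and nuclei were counted after 5 days.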

[2] = test system: NCI-H1734
In short: as §1

[3] = test system: NCI-H522
In short: as §1

[4] = test system: NCI-H1993
In short: as §1

[5] = test system: NCI-H1792
In short: as §1

[6] = test system: NCI-H1437
In short: as §1

[7] = test system: NCI-H1395
In short: as §1

[8] = test system: SK-LU-1
In short: as §1

[9] = test system: NCI-H2405
In short: as §1

[10] = test system: NCI-H647
In short: as §1

[11] = test system: HCC-827
In short: as §1

[12] = test system: NCI-H1355
In short: as §1

[13] = test system: BEN
In short: as §1

[14] = test system: EKVX
In short: as §1

[15] = test system: NCI-H661
In short: as §1

[16] = test system: NCI-H2009
In short: as §1

[17] = test system: HARA
In short: as §1

[18] = test system: HCC-366
In short: as §1

[19] = test system: SK-MES-1
In short: as §1

[20] = test system: NCI-H2342
In short: as §1

[21] = test system: LOU-NH91
In short: as §1

[22] = test system: NCI-H2170
In short: as §1

O=c1cc(-c2cccc3c2Sc2ccccc2S3)oc(N2CCOCC2)c1 + CC(=O)c1c(C)c2cnc(Nc3ccc(N4CCNCC4)cn3)nc2n(C2CCCC2)c1=O [Palbociclib] (partner 0.5 µM)
relative viability ([1]; first compound 0.08 µM): 0.23
relative viability ([1]; first compound 0.253 µM): 0.234
relative viability ([1]; first compound 0.8 µM): 0.203
relative viability ([1]; first compound 2.53 µM): 0.222
relative viability ([1]; first compound 8 µM): 0.201
relative viability ([2]; first compound 0.08 µM): 0.33
relative viability ([2]; first compound 0.253 µM): 0.344
relative viability ([2]; first compound 0.8 µM): 0.414
relative viability ([2]; first compound 8 µM): 0.357
relative viability ([3]; first compound 0.08 µM): 1.13
relative viability ([3]; first compound 0.253 µM): 1.07
relative viability ([3]; first compound 0.8 µM): 1.01
relative viability ([3]; first compound 2.53 µM): 1.04
relative viability ([3]; first compound 8 µM): 1
relative viability ([4]; first compound 0.08 µM): 0.632
relative viability ([4]; first compound 0.253 µM): 0.674
relative viability ([4]; first compound 0.8 µM): 0.526
relative viability ([4]; first compound 2.53 µM): 0.599
relative viability ([4]; first compound 8 µM): 0.709
relative viability ([5]; first compound 0.08 µM): 0.673
relative viability ([5]; first compound 0.253 µM): 0.847
relative viability ([5]; first compound 0.8 µM): 0.635
relative viability ([5]; first compound 2.53 µM): 0.654
relative viability ([5]; first compound 8 µM): 0.688
relative viability ([6]; first compound 0.08 µM): 0.302
relative viability ([6]; first compound 0.253 µM): 0.344
relative viability ([6]; first compound 0.8 µM): 0.276
relative viability ([6]; first compound 2.53 µM): 0.25
relative viability ([6]; first compound 8 µM): 0.285
relative viability ([7]; first compound 0.08 µM): 0.62
relative viability ([7]; first compound 0.253 µM): 0.539
relative viability ([7]; first compound 0.8 µM): 0.568
relative viability ([7]; first compound 2.53 µM): 0.574
relative viability ([7]; first compound 8 µM): 0.638
relative viability ([8]; first compound 0.08 µM): 0.397
relative viability ([8]; first compound 0.253 µM): 0.354
relative viability ([8]; first compound 0.8 µM): 0.418
relative viability ([8]; first compound 2.53 µM): 0.327
relative viability ([8]; first compound 8 µM): 0.368
relative viability ([9]; first compound 0.08 µM): 0.523
relative viability ([9]; first compound 0.253 µM): 0.534
relative viability ([9]; first compound 0.8 µM): 0.55
relative viability ([9]; first compound 2.53 µM): 0.491
relative viability ([9]; first compound 8 µM): 0.503
relative viability ([10]; first compound 0.08 µM): 0.438
relative viability ([10]; first compound 0.253 µM): 0.487
relative viability ([10]; first compound 0.8 µM): 0.357
relative viability ([10]; first compound 2.53 µM): 0.296
relative viability ([10]; first compound 8 µM): 0.391
relative viability ([11]; first compound 0.08 µM): 0.479
relative viability ([11]; first compound 0.253 µM): 0.493
relative viability ([11]; first compound 0.8 µM): 0.444
relative viability ([11]; first compound 2.53 µM): 0.37
relative viability ([11]; first compound 8 µM): 0.442
relative viability ([12]; first compound 0.08 µM): 0.396
relative viability ([12]; first compound 0.253 µM): 0.428
relative viability ([12]; first compound 0.8 µM): 0.371
relative viability ([12]; first compound 2.53 µM): 0.401
relative viability ([12]; first compound 8 µM): 0.264
relative viability ([13]; first compound 0.08 µM): 0.464
relative viability ([13]; first compound 0.253 µM): 0.447
relative viability ([13]; first compound 0.8 µM): 0.477
relative viability ([13]; first compound 2.53 µM): 0.452
relative viability ([13]; first compound 8 µM): 0.499
relative viability ([14]; first compound 0.08 µM): 0.582
relative viability ([14]; first compound 0.253 µM): 0.657
relative viability ([14]; first compound 0.8 µM): 0.345
relative viability ([14]; first compound 2.53 µM): 0.321
relative viability ([14]; first compound 8 µM): 0.399
relative viability ([15]; first compound 0.08 µM): 0.416
relative viability ([15]; first compound 0.253 µM): 0.438
relative viability ([15]; first compound 0.8 µM): 0.393
relative viability ([15]; first compound 2.53 µM): 0.394
relative viability ([15]; first compound 8 µM): 0.379
relative viability ([16]; first compound 0.08 µM): 0.189
relative viability ([16]; first compound 0.253 µM): 0.232
relative viability ([16]; first compound 0.8 µM): 0.225
relative viability ([16]; first compound 2.53 µM): 0.199
relative viability ([16]; first compound 8 µM): 0.213
relative viability ([17]; first compound 0.08 µM): 0.253
relative viability ([17]; first compound 0.253 µM): 0.201
relative viability ([17]; first compound 0.8 µM): 0.241
relative viability ([17]; first compound 2.53 µM): 0.209
relative viability ([17]; first compound 8 µM): 0.266
relative viability ([18]; first compound 0.08 µM): 0.436
relative viability ([18]; first compound 0.253 µM): 0.349
relative viability ([18]; first compound 0.8 µM): 0.487
relative viability ([18]; first compound 2.53 µM): 0.401
relative viability ([18]; first compound 8 µM): 0.51
relative viability ([19]; first compound 0.08 µM): 0.311
relative viability ([19]; first compound 0.253 µM): 0.321
relative viability ([19]; first compound 0.8 µM): 0.313
relative viability ([19]; first compound 2.53 µM): 0.294
relative viability ([19]; first compound 8 µM): 0.286
relative viability ([20]; first compound 0.08 µM): 0.52
relative viability ([20]; first compound 0.253 µM): 0.548
relative viability ([20]; first compound 0.8 µM): 0.515
relative viability ([20]; first compound 2.53 µM): 0.522
relative viability ([20]; first compound 8 µM): 0.575
relative viability ([21]; first compound 0.08 µM): 0.528
relative viability ([21]; first compound 0.253 µM): 0.518
relative viability ([21]; first compound 0.8 µM): 0.543
relative viability ([21]; first compound 2.53 µM): 0.535
relative viability ([21]; first compound 8 µM): 0.571
relative viability ([22]; first compound 0.08 µM): 0.45
relative viability ([22]; first compound 0.253 µM): 0.482
relative viability ([22]; first compound 0.8 µM): 0.414
relative viability ([22]; first compound 2.53 µM): 0.354
relative viability ([22]; first compound 8 µM): 0.359
